According to paper PMC3495945, “Org 214007-0: A Novel Non-Steroidal Selective Glucocorticoid Receptor Modulator with Full Anti-Inflammatory Properties and Improved Therapeutic Index” (PLoS ONE, 2012):

Columns and labels:
[1] = system: endometrium in estrogen-primed immature rabbits; assay: anti-McPhail test (antagonistic, anti-progestational activity); format: in vivo, rabbit; details: 0-4 scale; 7 days with progesterone; RU486 4 mg/kg/day, Org 214007-0 0.5 mg/kg/day oral; n=2
Protocol: For the anti-McPhail test, the estrogen-primed rabbits were subsequently treated for 7 days with inducer progesterone (0.25 mg/kg/day s.c.) in combination with an oral treatment of either placebo, reference RU486 (4 mg/kg/day) or Org 214007-0 (0.5 mg/kg/day). The uterus preparation and evaluation of the endometrium was performed as described above.
For the antagonistic test, after oestrogen priming, rabbits were treated for 7 days with progesterone and placebo, reference RU486 or Org 214007-0. One day after the last treatment the uterus was dissected and endometrial development was scored on a 0-4 scale. […] After treatment with Org 214007-0 no reduction of the endometrial transformation was observed (score 3.31), indicative for no anti-progestagenic activity

[2] = system: endometrium in estrogen-primed immature rabbits; assay: McPhail test (agonistic, progestational activity); format: in vivo, rabbit; details: 0-4 scale; 5 days; MPA 0.05 mg/kg/day, Org 214007-0 0.5 mg/kg/day; n=2
Protocol: The McPhail (or anti-McPhail) test was used to evaluate potential progestational (or anti-progestational) activity of Org 214007-0 on the endometrium in estrogen-primed immature rabbits after once-daily administration. The female NZW rabbits were housed in pairs in a light- and temperature-controlled room, fed daily with 40 - 50 g standard pelleted food and with free access to tap-water. Before treatment with compounds rabbits were primed daily in the morning with a subcutaneous dose of 2 μg estradiol benzoate for 8 days. […] Transverse sections were prepared, stained with haematoxylin-eosin and evaluated microscopically. Endometrial development was scored on a 0-4 scale as follows: score 0: no development of glands; score 1: start of development of glands; score 2: clear-cut development of glands with ducts beginning to branch; score 3: about 2/3 of stroma bearing glandual tissue; score 4: more than 2/3 of stroma bearing glandular tissue. A score of 2 or higher in both rabbits was evaluated as a positive resonse.
For both the agonistic and antagonistic test immature female NZW rabbits (n=2 per treatment group) were primed with estrogen. […] One day after the last treatment the uterus was dissected and endometrial development was scored on a 0-4 scale. […]

For `Cc1nnsc1C(=O)N[C@H]1CCN2c3ccc(C#N)cc3[C@@H](C)c3ccccc3[C@@H]2C1` [Org 214007-0], the “endometrial development score, antagonistic test” value [1] was 3.31 and the “endometrial development score, agonistic test” value [2] was 0.5.
